Source: US20050009840A1 (SUGEN, INC., priority 2003, published 2005)
Where “and” joins values, the source holds several entries; their conditions need not be identical. Equal entries are not always repeated.

Target: T1, Met kinase domain (GST fusion protein) (Homo sapiens, UniProt P08581)
T1 construct: Purified GST fusion protein containing the Met kinase domain
Assay: Met transphosphorylation assay (ELISA, poly(glu-tyr) substrate);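 note: Cell-free ELISA with plate-bound poly(Glu:Tyr 4:1) phosphorylated by GST-fused Met kinase domain plus ATP and Mn2+, phosphotyrosine detected by anti-phosphotyrosine antibody with HRP and ABTS read-out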
Type: biochemical
Conditions: Table 2; read-out: Met IC50

T1 sequence (P08581 1078-1345 limits assumed): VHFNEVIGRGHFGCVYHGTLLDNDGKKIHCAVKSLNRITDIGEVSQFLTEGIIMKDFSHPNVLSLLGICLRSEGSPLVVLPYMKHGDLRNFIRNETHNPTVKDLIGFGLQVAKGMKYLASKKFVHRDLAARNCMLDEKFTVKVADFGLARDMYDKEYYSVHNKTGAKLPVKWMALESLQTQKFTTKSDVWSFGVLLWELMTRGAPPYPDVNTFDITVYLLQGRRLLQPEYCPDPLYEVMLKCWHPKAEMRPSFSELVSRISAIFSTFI

| Compound | IC50 |
| --- | --- |
| Nc1ncc(-c2ccc(C(=O)NCCN3CCCC3)cc2)cc1OCc1c(F)ccc(F)c1Cl [Example I-221] | 180 nM |
| Nc1ncc(-c2ccc(C(=O)NCCCN3CCCC3)cc2)cc1OCc1c(F)ccc(F)c1Cl [Example I-222] | 190 nM |
| Nc1ncc(-c2ccc(C(=O)NCCN3CCOCC3)cc2)cc1OCc1c(F)ccc(F)c1Cl [Example I-223] | 165 nM |
| Nc1ncc(-c2ccc(C(=O)NCCCN3CCOCC3)cc2)cc1OCc1c(F)ccc(F)c1Cl [Example I-224, 4-[6-Amino-5-(2-chloro-3,6-difluoro-benzyloxy)-pyridin-3-yl]-N-(3-morpholin-4-yl-propyl)-benzamide] | 280 nM |
| Nc1ncc(-c2cccc(C(=O)O)c2)cc1OCc1c(F)ccc(F)c1Cl [Example I-225, 3-[6-Amino-5-(2-chloro-3,6-difluoro-benzyloxy)-pyridin-3-yl]-benzoic acid] | 3700 nM and 600 nM |
| Nc1ncc(-c2cccc(C(=O)N3CCC(N)CC3)c2)cc1OCc1c(F)ccc(F)c1Cl [Example I-228, {3-[6-Amino-5-(2-chloro-3,6-difluoro-benzyloxy)-pyridin-3-yl]-phenyl}-(4-amino-piperidin-1-yl)-methanone] | 230 nM |
| CN(C)[C@H]1CCN(C(=O)c2cccc(-c3cnc(N)c(OCc4c(F)ccc(F)c4Cl)c3)c2)C1 [Example I-231, {-[6-Amino-5-(2-chloro-3,6-difluoro-benzyloxy)-pyridin-3-yl]-phenyl}-[(3S)-3-dimethylamino-pyrrolidin-1-yl]-methanone] | 128 nM |
| Nc1ncc(-c2cccc(C(=O)NCCN3CCCC3)c2)cc1OCc1c(F)ccc(F)c1Cl [Example I-235, 3-[6-Amino-5-(2-chloro-3,6-difluoro-benzyloxy)-pyridin-3-yl]-N-(2-pyrrolidin-1-yl-ethyl)-benzamide] | 260 nM |
| Nc1ncc(-c2cccc(C(=O)NCCCN3CCCC3)c2)cc1OCc1c(F)ccc(F)c1Cl [Example I-236, 3-[6-Amino-5-(2-chloro-3,6-difluoro-benzyloxy)-pyridin-3-yl]-N-(3-pyrrolidin-1-yl-propyl)-benzamide] | 280 nM |
| Nc1ncc(-c2cccc(C(=O)NCCN3CCOCC3)c2)cc1OCc1c(F)ccc(F)c1Cl [Example I-237, 3-[6-Amino-5-(2-chloro-3,6-difluoro-benzyloxy)-pyridin-3-yl]-N-(2-morpholin-4-yl-ethyl)-benzamide] | 350 nM |
| Nc1ncc(-c2cccc(C(=O)NCCCN3CCOCC3)c2)cc1OCc1c(F)ccc(F)c1Cl [Example I-238, 3-[6-Amino-5-(2-chloro-3,6-difluoro-benzyloxy)-pyridin-3-yl]-N-(3-morpholin-4-yl-propyl)-benzamide] | 350 nM |
| CC(=O)N1CCN(CCNC(=O)c2cccc(-c3cnc(N)c(OCc4c(F)ccc(F)c4Cl)c3)c2)CC1 [Example I-239, N-[2-(4-Acetyl-piperazin-1-yl)-ethyl]-3-[6-amino-5-(2-chloro-3,6-difluoro-benzyloxy)-pyridin-3-yl]-benzamide] | 100 nM |
| Nc1ncc(-c2ccc(N3CCCS3(=O)=O)cc2)cc1OCc1c(F)cccc1C(F)(F)F [Example I-242, 5-[4-(1,1-Dioxo-1λ^6-isothiazolidin-2-yl)-phenyl]-3-(2-fluoro-6-trifluoromethyl-benzyloxy)-pyridin-2-ylamine] | 140 nM |
| Nc1ncc(-c2ccc(NS(=O)(=O)CCN3CCC(O)CC3)cc2)cc1OCc1c(F)ccc(F)c1Cl [Example I-246, 2-(4-Hydoxy-piperidin-1-yl)-ethanesulfonic acid {4-[6-amino-5-(2-chloro-3,6-difluoro-benzyloxy)-pyridin-3-yl]-phenyl}-amide] | 135 nM |
| Nc1ncc(-c2ccc(NS(=O)(=O)CCN3CCOCC3)cc2)cc1OCc1c(F)ccc(F)c1Cl [Example I-247, 2-Morpholin-4-yl-ethanesulfonic acid {4-[6-amino-5-(2-chloro-3,6-difluoro-benzyloxy)-pyridin-3-yl]-phenyl}-amide] | 310 nM |
| CC(=O)N1CCN(CCS(=O)(=O)Nc2ccc(-c3cnc(N)c(OCc4c(F)ccc(F)c4Cl)c3)cc2)CC1 [Example I-250, 2-(4-Acetyl-piperazin-1-yl)-ethanesulfonic acid {4-[6-amino-5-(2-chloro-3,6-difluoro-benzyloxy)-pyridin-3-yl]-phenyl}-amide] | 420 nM |
| Nc1ncc(-c2ccc(NS(=O)(=O)CCN3CCN(C(=O)CO)CC3)cc2)cc1OCc1c(F)ccc(F)c1Cl [Example I-254, 2-[4-(2-Hydroxy-acetyl)-piperazin-1-yl]-ethanesulfonic acid {4-[6-amino-5-(2-chloro-3,6-difluoro-benzyloxy)-pyridin 3-yl]-phenyl}-amide] | 180 nM |
| CC(=O)N1CCN(CCS(=O)(=O)Nc2cccc(-c3cnc(N)c(OCc4c(F)ccc(F)c4Cl)c3)c2)CC1 [Example I-255, 2-(4-Acetyl-piperazin-1-yl)-ethanesulfonic acid {3-[6-amino-5-(2-chloro-3,6-difluoro-benzyloxy)-pyridin-3-yl]-phenyl}-amide] | 680 nM |
| Nc1ncc(-c2cccc(NS(=O)(=O)CCN3CCCC3)c2)cc1OCc1c(F)ccc(F)c1Cl [Example I-256, 2-Pyrrolidin-1-yl-ethanesulfonic acid {3-[6-amino-5-(2-chloro-3,6-difluoro-benzyloxy)-pyridin-3-yl]-phenyl}-amide] | 230 nM |
| Nc1ncc(-c2cccc(NS(=O)(=O)CCN3CCOCC3)c2)cc1OCc1c(F)ccc(F)c1Cl [Example I-257, 2-Morpholin-4-yl-ethanesulfonic acid {3-[6-amino-5-(2-chloro-3,6-difluoro-benzyloxy)-pyridin-3-yl]-phenyl}-amide] | 1640 nM |
| CCN(CC)CCS(=O)(=O)Nc1cccc(-c2cnc(N)c(OCc3c(F)ccc(F)c3Cl)c2)c1 [Example I-258, 2-Diethylamino-ethanesulfonic acid {3-[6-amino-5-(2-chloro-3,6-difluoro-benzyloxy)-pyridin-3-yl]-phenyl}amide] | 1670 nM |

Next, values leading:

| IC50 | Compound |
| --- | --- |
| 95 nM | Nc1ncc(-c2ccc(C(=O)N3CC[C@H](N)C3)cc2)cc1OCc1c(F)ccc(F)c1Cl [Example I-219, {4-[6-Amino-5-(2-chloro-3,6-difluoro-benzyloxy)-pyridin-3-yl]-phenyl}-[(3S)-3-amino-pyrrolidin-1-yl]-methanone] |
| 110 nM | CN1CCC(NC(=O)c2ccc(-c3cnc(N)c(OCc4c(F)ccc(F)c4Cl)c3)cc2)CC1 [Example I-220, 4-[6-Amino-5-(2-chloro-3,6-difluoro-benzyloxy)-pyridin-3-yl]-N-(1-methyl-piperidin-4-yl)-benzamide] |
| 68 nM | CN1CCN(C(=O)c2cccc(-c3cnc(N)c(OCc4c(F)ccc(F)c4Cl)c3)c2)CC1 [Example I-226, {3-[6-Amino-5-(2-chloro-3,6-difluoro-benzyloxy)-pyridin-3-yl]-phenyl}-(4-methyl-piperazin-1-yl)-methanone] |
| 120 nM | Nc1ncc(-c2cccc(C(=O)N3CC[C@@H](N)C3)c2)cc1OCc1c(F)ccc(F)c1Cl [Example I-232, {3-[6-Amino-5-(2-chloro-3,6-difluoro-benzyloxy)-pyridin-3-yl]-phenyl}-[(3R)-3-amino-pyrrolidin-1-yl]-methanone] |
| 120 nM | Nc1ncc(-c2cccc(C(=O)N3CC[C@H](N)C3)c2)cc1OCc1c(F)ccc(F)c1Cl [Example I-233, {3-[6-Amino-5-(2-chloro-3,6-difluoro-benzyloxy)-pyridin-3-yl]-phenyl}-[(3S)-amino-pyrrolidin-1-yl]-methyanone] |
| 100 nM | Nc1ncc(-c2ccc(N3CCCS3(=O)=O)cc2)cc1OCc1c(F)ccc(F)c1Cl [Example I-240, 3-(2-Chloro-3,6-difluoro-benzyloxy)-5-[4-(1,1-dioxo-1λ^6-isothiazolidin-1-yl)-phenyl]-pyridin-2-ylamine] |
| 67 nM | Nc1ncc(-c2ccc(N3CCCS3(=O)=O)cc2)cc1OCc1c(Cl)cccc1Cl [Example I-241] |
| 43 nM | CCN(CC)CCS(=O)(=O)Nc1ccc(-c2cnc(N)c(OCc3c(F)ccc(F)c3Cl)c2)cc1 [Example I-243, 2-diethylamino-ethanesulfonic acid {4-[6-amino-5-(2-chloro-3,6-difluoro-benzyloxy)-pyridin-3-yl]-phenyl)amide] |
| 81 nM | Nc1ncc(-c2ccc(NS(=O)(=O)CCNC3CC3)cc2)cc1OCc1c(F)ccc(F)c1Cl [Example I-244, 2-Cydopropylamino-ethanesulfonic acid {4-[6-amino-5-(2-chloro-3,6-difluoro-benzyloxy)-pyridin-3-yl]-phenyl}-amide] |
| 82 nM | Nc1ncc(-c2ccc(NS(=O)(=O)CCN3CCCC3)cc2)cc1OCc1c(F)ccc(F)c1Cl [Example I-245] |
| 114 nM | Nc1ncc(-c2ccc(NS(=O)(=O)CCN3CCCCC3)cc2)cc1OCc1c(F)ccc(F)c1Cl [Example I-248, 2-Pipendin-1-yl-ethanesulfonic acid {4-[6-amino-5-(2-chloro-3,6-difluoro-benzyloxy)-pyridin-3-yl]-phenyl}-amide] |
| 98 nM | CN(C)CCS(=O)(=O)Nc1ccc(-c2cnc(N)c(OCc3c(F)ccc(F)c3Cl)c2)cc1 [Example I-249, 2-Dimethylamino-ethanesulfonic acid {4-[6-amino-5-(2-chloro-3,6-difluoro-benzyloxy)-pyridin-3-yl]-phenyl}-amide] |
| 75 nM | Nc1ncc(-c2ccc(NS(=O)(=O)CCNCC3CC3)cc2)cc1OCc1c(F)ccc(F)c1Cl [Example I-251, 2-(Cyclopropylmethyl-amino)-ethanesulfonic acid {4-[6-amino-5-(2-chloro-3,6-difluoro-benzyloxy)-pyridin-3-yl]-phenyl}-amide] |
| 125 nM | Nc1ncc(-c2ccc(NS(=O)(=O)CCN3CC[C@@H](O)C3)cc2)cc1OCc1c(F)ccc(F)c1Cl [Example I-252, 2-[(3R)-3-Hydroxy-pyrrolidin-1-yl]-ethanesulfonic acid {4-[6-amino-5-(2-chloro-3,6-difluoro-benzyloxy)-pyridin-3-yl]-phenyl}-amide] |
| 97 nM | Nc1ncc(-c2ccc(NS(=O)(=O)CCN3CCC[C@H]3CO)cc2)cc1OCc1c(F)ccc(F)c1Cl [Example I-253, 2-[(2S)-2-Hydroxymethyl-pyrrolidin-1-yl]-ethanesulfonic acid {4-[6-amino-5-(2-chloro-3,6-difluoro-benzyloxy)-pyridin-3-yl]-phenyl}-amide] |
